# Patent publication US20240018483A1, “A DEVICE AND METHOD FOR VASCULARISING A CELL AGGREGATE” (AGENCY FOR SCIENCE, TECHNOLOGY AND RESEARCH, priority 2020, published 2024)
# System: Hep3b monoculture and triculture spheroids
# Experiment: Sorafenib treatment of tumour spheroids in devices with and without vasculature (GFP signal of live cells)
# Format: cell-based
# Conditions: 10 μM Sorafenib for 7 days from day 5, vascularised vs non-vascularised, FIG. 9B
# Procedure: Next, the effect of Sorafenib treatment on the tumour spheroids and the vasculature was investigated. In this example, Hep3b monoculture and triculture spheroids were seeded in the devices with and without vasculature. At day 5, 10 μM of Sorafenib was used to treat the tumours for 7 days. GFP signal (representing the live cells) was quantified along the time.
# In FIG. 9A, representative images from all the conditions are shown at Day 0 (starting of the drug treatment) and Day 5 post-treatment. FIG. 9B is a graph showing the GFP signal over time represented from 3 independent replicates.
compound,measurement,value
CNC(=O)c1cc(Oc2ccc(NC(=O)Nc3ccc(Cl)c(C(F)(F)F)c3)cc2)ccn1 [Sorafenib],viability of spheroids (GFP signal representing the live cells),viability of the vascularised spheroids is lower compared to the non-vascularised spheroids
